From the supplement of paper PMC11061612

Columns and labels:
Assay in all cases: combination Emax (second highest fraction inhibited in the dose matrix, 72 h); higher = more inhibition; extreme values may be limits of the assay
[1] = test system: ASH-3 (Thyroid Gland Carcinoma)
Method in brief: (§1)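 Cell lines in DMEM/F12 or RPMI with 10% FBS were plated in 1536-well plates, held 24 hours at 37°C, 5% CO2, then given two-drug dose matrices for 72 hours (DMSO typically 0.2%). Viability was read by CellTiter-Glo 2.0 luminescence and scaled as inhibition from 0 (vehicle wells) to 1 (blank wells). Combination Emax is the second-highest inhibition in the matrix; Bliss excess is observed combination effect minus expected EA + EB − EA·EB, EA and EB being single-agent effects.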

[2] = test system: BT-20 (Breast Carcinoma)
Method in brief: as §1

[3] = test system: EW-18 (Ewing's Sarcoma)
Method in brief: as §1

[4] = test system: GOTO (Neuroblastoma)
Method in brief: as §1

[5] = test system: HSC-2 (Oral Cavity Carcinoma)
Method in brief: as §1

[6] = test system: JHH-7 (Hepatocellular Carcinoma)
Method in brief: as §1

[7] = test system: KU-19-19 (Bladder Carcinoma)
Method in brief: as §1

[8] = test system: LOU-NH91 (Squamous Cell Lung Carcinoma)
Method in brief: as §1

[9] = test system: MFE-319 (Endometrial Carcinoma)
Method in brief: as §1

[10] = test system: NB7 (Neuroblastoma)
Method in brief: as §1

[11] = test system: NCI-H2347 (Lung Adenocarcinoma)
Method in brief: as §1

[12] = test system: NCI-H2405 (Lung Adenocarcinoma)
Method in brief: as §1

[13] = test system: NCI-H322M (Lung Adenocarcinoma)
Method in brief: as §1

[14] = test system: NCI-N87 (Gastric Carcinoma)
Method in brief: as §1

[15] = test system: OCUM-1 (Gastric Carcinoma)
Method in brief: as §1

[16] = test system: OVISE (Ovarian Carcinoma)
Method in brief: as §1

[17] = test system: PF-382 (T-Lymphoblastic Leukemia)
Method in brief: as §1

[18] = test system: RPMI-7951 (Melanoma)
Method in brief: as §1

[19] = test system: SCC-3 (B-Cell Non-Hodgkin's Lymphoma)
Method in brief: as §1

[20] = test system: TGBC11TKB (Gastric Carcinoma)
Method in brief: as §1

| SMILES | combination Emax [1] | combination Emax [2] | combination Emax [3] | combination Emax [4] | combination Emax [5] | combination Emax [6] | combination Emax [7] | combination Emax [8] | combination Emax [9] | combination Emax [10] | combination Emax [11] | combination Emax [12] | combination Emax [13] | combination Emax [14] | combination Emax [15] | combination Emax [16] | combination Emax [17] | combination Emax [18] | combination Emax [19] | combination Emax [20] |
| --- | --- | --- | --- | --- | --- | --- | --- | --- | --- | --- | --- | --- | --- | --- | --- | --- | --- | --- | --- | --- |
| CN(C)CCCOc1ccc(-c2ccc3ncc4c(c3c2)n(C2CCOCC2)c(=O)n4C)cn1 [AZD0156] + C=CCn1c(=O)c2cnc(Nc3ccc(N4CCN(C)CC4)cc3)nc2n1-c1cccc(C(C)(C)O)n1 [AZD1775] (first compound max 1 µM, partner max 1 µM) | 0.203 | 0.476 | 0.556 | 0.865 | 0.54 | 0.136 | 0.751 | 0.371 | 0.63 | 0.6 | 0.335 | 0.0974 | 0.77 | 0.726 | 0.548 | 0.7 | 0.954 | 0.687 | 0.941 | 0.895 |
| CN(C)CCCOc1ccc(-c2ccc3ncc4c(c3c2)n(C2CCOCC2)c(=O)n4C)cn1 [AZD0156] + CCN(CCO)CCCOc1ccc2c(Nc3cc(CC(=O)Nc4cccc(F)c4)[nH]n3)ncnc2c1 [AZD2811] (first compound max 1 µM, 7x7, partner max 1 µM) | 0.155 | 0.198 | 0.678 | 0.649 | 0.289 | 0.143 | 0.349 | 0.208 | 0.147 | 0.276 | 0.148 | 0.106 | 0.123 | 0.253 | 0.332 | 0.113 | 0.823 | 0.257 | 0.445 | 0.325 |
| CN(C)CCCOc1ccc(-c2ccc3ncc4c(c3c2)n(C2CCOCC2)c(=O)n4C)cn1 [AZD0156] + C[C@@H]1COCCN1C2=NC(=NC(=C2)C3(CC3)[S@](=N)(=O)C)C4=C5C=CNC5=NC=C4 [AZD6738] (first compound max 1 µM, 7x7, partner max 10 µM) | 0.719 | 0.449 | 0.727 | 0.913 | 0.696 | 0.32 | 0.869 | 0.236 | 0.683 | 0.804 | 0.346 | 0.229 | 0.922 | 0.704 | 0.783 | 0.759 | 0.855 | 0.886 | 0.998 | 0.799 |
| CN(C)CCCOc1ccc(-c2ccc3ncc4c(c3c2)n(C2CCOCC2)c(=O)n4C)cn1 [AZD0156] + O=C(c1cc(Cc2n[nH]c(=O)c3ccccc23)ccc1F)N1CCN(C(=O)C2CC2)CC1 [Olaparib] (first compound max 3 µM, partner max 3 µM) | 0.194 | 0.157 | 0.61 | 0.306 | 0.386 | 0.339 | 0.221 | 0.209 | 0.193 | 0.297 | 0.268 | 0.256 | 0.357 | 0.327 | 0.319 | 0.306 | 0.38 | 0.264 | 0.687 | 0.131 |
| C=CCn1c(=O)c2cnc(Nc3ccc(N4CCN(C)CC4)cc3)nc2n1-c1cccc(C(C)(C)O)n1 [AZD1775] + C1CN(CCC1(C(=O)N[C@@H](CCO)C2=CC=C(C=C2)Cl)N)C3=NC=NC4=C3C=CN4 [Capivasertib] (first compound max 3 µM, partner max 3 µM) | 0.519 | 0.69 | 0.859 | 0.712 | 0.757 | 0.727 | 0.856 | 0.727 | 0.858 | 0.748 | 0.477 | 0.572 | 0.768 | 0.689 | 0.707 | 0.651 | 0.952 | 0.856 | 0.977 | 0.939 |
| C=CCn1c(=O)c2cnc(Nc3ccc(N4CCN(C)CC4)cc3)nc2n1-c1cccc(C(C)(C)O)n1 [AZD1775] + C[C@@H]1COCCN1C2=NC(=NC(=C2)C3(CC3)[S@](=N)(=O)C)C4=C5C=CNC5=NC=C4 [AZD6738] (first compound max 1 µM, partner max 10 µM) | 0.848 | 0.718 | 0.66 | 0.888 | 0.832 | 0.642 | 0.811 | 0.54 | 0.825 | 0.934 | 0.449 | 0.355 | 0.871 | 0.806 | 0.816 | 0.777 | 0.966 | 0.951 | 1 | 0.922 |
| C=CCn1c(=O)c2cnc(Nc3ccc(N4CCN(C)CC4)cc3)nc2n1-c1cccc(C(C)(C)O)n1 [AZD1775] + O=C(c1cc(Cc2n[nH]c(=O)c3ccccc23)ccc1F)N1CCN(C(=O)C2CC2)CC1 [Olaparib] (first compound max 1 µM, partner max 10 µM) | 0.262 | 0.518 | 0.522 | 0.771 | 0.63 | 0.293 | 0.804 | 0.383 | 0.619 | 0.632 | 0.35 | 0.192 | 0.666 | 0.711 | 0.473 | 0.619 | 0.976 | 0.766 | 0.968 | 0.794 |
| CN(CCO)CC[C@H](CSc1ccccc1)Nc1ccc(S(=O)(=O)NC(=O)c2ccc(N3CCC([C@@H](O)c4ccccc4-c4ccc(Cl)cc4)CC3)cc2)cc1S(=O)(=O)C(F)(F)F [AZD4320] + C1CN(CCC1(C(=O)N[C@@H](CCO)C2=CC=C(C=C2)Cl)N)C3=NC=NC4=C3C=CN4 [Capivasertib] (first compound max 1 µM, 7x7, partner max 3 µM) | 0.59 | 0.84 | 0.875 | 0.378 | 0.362 | 0.391 | 0.174 | 0.494 | – | 0.0214 | 0.362 | 0.224 | 0.0734 | 0.571 | 0.861 | 0.89 | 0.98 | 0.54 | 0.257 | 0.182 |
| COc1nnc2ccc(N3CCC(c4ccc(OCCN5CCN(C)C(=O)[C@H]5C)cc4)CC3)nn12 [AZD5153] + CN(CC[C@H](CSC1=CC=CC=C1)NC2=C(C=C(C=C2)S(=O)(=O)NC(=O)C3=CC=C(C=C3)N4CCC(CC4)[C@H](C5=CC=CC=C5C6=CC=C(C=C6)Cl)O)S(=O)(=O)C(F)(F)F)CCO [AZD4320] (first compound max 1 µM, 7x7, partner max 1 µM) | 0.958 | 0.293 | 0.929 | 0.858 | – | – | 0.755 | 0.781 | 0.476 | – | 0.518 | 0.443 | 0.563 | – | – | 0.9 | 1 | 0.647 | 0.93 | – |
| Cc1c2c(nn1C)CSCc1cc(n(C)n1)CSc1cc(c3ccccc3c1)OCCCc1c(C(=O)O)n(C)c3c-2c(Cl)ccc13 [AZD5991] + C[C@@H]1COCCN1C2=NC(=NC(=C2)C3(CC3)[S@](=N)(=O)C)C4=C5C=CNC5=NC=C4 [AZD6738] (first compound max 1 µM, 7x7, partner max 10 µM) | 0.566 | – | 0.928 | 0.92 | 0.765 | 0.268 | 0.767 | 0.426 | 0.932 | 0.918 | 0.322 | 0.353 | 0.94 | 0.688 | 0.71 | 0.615 | 0.929 | 0.98 | 0.957 | 0.889 |
| CS(=O)(=O)CCNCc1ccc(-c2ccc3ncnc(Nc4ccc(OCc5cccc(F)c5)c(Cl)c4)c3c2)o1 [Lapatinib] + NC1(c2ccc(-c3nc4ccn5c(=O)[nH]nc5c4cc3-c3ccccc3)cc2)CCC1 [MK-2206] (first compound max 10 µM, 7x7, partner max 10 µM) | 0.956 | – | – | – | 0.987 | 0.754 | 0.837 | – | 0.946 | 0.821 | 0.188 | 0.113 | – | 0.977 | 0.843 | 0.928 | 0.974 | – | – | 0.418 |
| CC(=O)c1c(C)c2cnc(Nc3ccc(N4CCNCC4)cn3)nc2n(C2CCCC2)c1=O [Palbociclib] + CN(CC[C@H](CSC1=CC=CC=C1)NC2=C(C=C(C=C2)S(=O)(=O)NC(=O)C3=CC=C(C=C3)N4CCC(CC4)[C@H](C5=CC=CC=C5C6=CC=C(C=C6)Cl)O)S(=O)(=O)C(F)(F)F)CCO [AZD4320] (first compound max 10 µM, 7x7, partner max 1 µM) | 0.692 | 0.546 | 0.903 | 0.846 | – | – | 0.54 | 0.618 | 0.31 | – | 0.458 | 0.351 | 0.517 | – | – | 0.889 | 1 | 0.678 | 0.392 | – |
| C[C@@H](c1ccc2nccn2c1)n1nnc2ncc(-c3cnn(C)c3)nc21 [Savolitinib] + CN(CC[C@H](CSC1=CC=CC=C1)NC2=C(C=C(C=C2)S(=O)(=O)NC(=O)C3=CC=C(C=C3)N4CCC(CC4)[C@H](C5=CC=CC=C5C6=CC=C(C=C6)Cl)O)S(=O)(=O)C(F)(F)F)CCO [AZD4320] (first compound max 1 µM, 7x7, partner max 1 µM) | 0.463 | 0.418 | 0.891 | 0.495 | – | – | 0.194 | 0.334 | 0.191 | – | 0.413 | 0.271 | 0.0979 | – | – | 0.7 | 0.993 | 0.271 | 0.0987 | – |
